Values of other authors as cited in US5672605A, “Macrolide immunomodulators” (Abbott Laboratories, priority 1995, dated 1997).

Assays:
[1] = test system: FKBP-12
[2] = test system: Candida albicans; details: particularly against Candida albicans, both in vitro and in vivo
[3] = rapamycin alone or in combination with picibanil
[4] = test system: experimental allergic encephalomyelitis model, a model for multiple sclerosis; details: in vivo
[5] = test system: adjuvant arthritis model, a model for rheumatoid arthritis; details: in vivo
[6] = test system: IgE-like antibodies

Compound | binding to FKBP-12, in words [1] | antifungal activity, in words [2] | antitumor activity, in words [3] | immunosuppressant effect in experimental allergic encephalomyelitis model [4] | immunosuppressant effect in adjuvant arthritis model [5] | inhibition of the formation of IgE-like antibodies [6]
C=CC[C@@H]1/C=C(\C)C[C@H](C)C[C@H](OC)[C@H]2O[C@@](O)(C(=O)C(=O)N3CCCC[C@H]3C(=O)O[C@H](/C(C)=C/[C@@H]3CC[C@@H](O)[C@H](OC)C3)[C@H](C)[C@@H](O)CC1=O)[C@H](C)C[C@@H]2OC [FK-506] | binds to FKBP-12 | – | – | – | – | –
CO[C@H]1C[C@@H]2CC[C@@H](C)[C@@](O)(O2)C(=O)C(=O)N2CCCC[C@H]2C(=O)O[C@H]([C@H](C)C[C@@H]2CC[C@@H](O)[C@H](OC)C2)CC(=O)[C@H](C)/C=C(\C)[C@@H](O)[C@@H](OC)C(=O)[C@H](C)C[C@H](C)/C=C/C=C/C=C/1C [rapamycin] | binds to FKBP-12 | antifungal activity | antitumor activity | effective as an immunosuppressant | effective as an immunosuppressant | effectively inhibit the formation of IgE-like antibodies
